From patent US8334261B2, “Osteopenia animal model” (Oriental Yeast Co., Ltd., priority 2006, dated 2012)

Experiments:
female C57BL/6N mice = assay: Producing OVX mice in a short period of time (GST-RANKL plus ovariectomy); format: in vivo, mouse
Experimental: 7-week-old female C57BL/6N mice were reared for 25 days. Then, GST-RANKL was intraperitoneally administered twice thereto at 1 mg/kg every 24 hours. Ovariectomy was carried out 24 hours after the 2nd administration. Further, the femur, tibia, and serum were collected from each mouse 24 hours after ovariectomy. The obtained samples were compared with the samples obtained from a group that was reared for 4 weeks after ovariectomy. In addition, PBS was administered to control groups for comparison with GST-RANKL administration groups. The PBS administration groups were subjected to sham operation (Sham) for comparison with the groups subjected to ovariectomy.
Regarding bone metabolism markers, TRAP-5b, calcium (Ca), and alkaline phosphatase (ALP) in the serum were measured. Each femur was subjected to bone density measurement with pQCT and image analysis with micro CT. After the initiation of rearing, the date of implementation of OVX or sham operation was expressed as “day X.”

[1] = system: 7-week-old male C57BL/6N mice; assay: Evaluation of male mice; format: in vivo, mouse
Experimental: GST-RANKL was intraperitoneally administered 3 times to groups of 7-week-old male C57BL/6N mice at 1 mg/kg every 24 hours. The femur and serum were collected from each mouse 1.5 hours after the 3rd administration and compared with those of the PBS administration group. Regarding bone metabolism markers, TRAP-5b, calcium (Ca), and alkaline phosphatase (ALP) in the serum were measured. Each femur was subjected to bone density measurement with pQCT and image analysis with micro CT.

[2] = system: GST-RANKL-administered 7-week-old female C57BL/6 mice; assay: Drug evaluation with bisphosphonate (risedronate) in GST-RANKL mice; format: in vivo, mouse; settings: for femur bone density decrease vs PBS group: RANKL alone
Experimental: Risedronate was separately administered via a subcutaneous route to groups of 7-week-old female C57BL/6 mice at doses of 3, 10, and 30 μg/kg every 24 hours from the day before GST-RANKL administration to the end of the experimentation. The femur and serum were collected from each mouse 1.5 hours after the 3rd administration of GST-RANKL. Measurement of TRAP-5b, calcium (Ca), and alkaline phosphatase (ALP) was carried out. Each femur was subjected to bone density measurement and image analysis with the use of pQCT.

[3] = system: GST-RANKL-administered 7-week-old female C57BL/6N mice; assay: Evaluation of an osteoporosis therapeutic agent (risedronate) with GST-RANKL-administered mice; format: in vivo, mouse
Experimental: GST-RANKL (426 nmol) was intraperitoneally administered 3 times to groups of 7-week-old female C57BL/6N mice (5 to 6 individuals each) every 24 hours. An osteoporosis therapeutic agent (risedronate) was subcutaneously administered at 0.01 mg/kg every 24 hours from 3 days before GST-RANKL administration. Administration of the agent was continued to the end of the experimentation every 24 hours. The serum, femur, and tibia were collected from each mouse 1.5 hours after the 3rd administration of GST-RANKL. Bone resorption parameters (calcium, CTx, and TRAP-5b) and osteogenesis parameters (osteocalcin and ALP) in the serum were measured. The femur bone density was determined with the use of pQCT and micro CT. Measurement values were compared with those for a control group by the Dunnett method for testing.

[4] = system: 7-week-old female ICR mice; assay: Evaluation of mice of the other lineages (ICR); format: in vivo, mouse
Experimental: GST-RANKL was intraperitoneally administered 3 times to groups of 7-week-old female ICR mice at 1 mg/kg every 24 hours. The femur and serum were collected from each mouse 1.5 hours after the 3rd administration and compared with those of the PBS administration group. Regarding bone metabolism markers, TRAP-5b, calcium (Ca), and alkaline phosphatase (ALP) in the serum were measured. Each femur was subjected to bone density measurement with pQCT and image analysis with micro CT.

[5] = system: 8-week-old female C57BL/6N mice; assay: Administration of GST-RANKL to mouse calvaria; format: in vivo; settings: 3 days
Experimental: GST-RANKL was administered to the calvaria of groups of 8-week-old female C57BL/6N mice for 3 days. The femur was collected from each mouse on day 5 day after the initiation of experimentation. The femur bone density was evaluated with pQCT. Experimentation was conducted with the use of the following three experimental groups: the experimental group 1 subjected to administration of GST-RANKL at 0.5 mg/kg twice daily; the experimental group 2 subjected to administration of GST-RANKL at 1 mg/kg once daily; and the PBS group serving as a control group for comparison and being subjected to PBS administration. Cancellous bone density measurement was carried out at points 0.6 mm, 0.8 mm, and 1.0 mm from the distal growth plate on the proximal side of the collected femur with pQCT.

[6] = system: 7-week-old female C57BL/6 mice; assay: Administration of GST-RANKL for 7 consecutive days; format: in vivo, mouse
Experimental: GST-RANKL was intraperitoneally administered to groups of 7-week-old female C57BL/6 mice at 2 mg/kg/day for 7 consecutive days. The serum and femur were collected from each mouse 1.5 hours after the 7th administration. The serum and femur obtained from each mouse were subjected to measurement of serum markers and bone density measurement with pQCT, respectively.

[7] = GST-RANKL 426 nmol i.p. 3 times

GST-RANKL: fused protein of Glutathione S-transferase with human RANKL residues 140-317, expressed in Escherichia coli, 47.0 kDa
serum ALP concentration increase vs PBS+Sham (day 27) group (female C57BL/6N mice; GST-RANKL administration OVX (day 27) group): approximately 40%
femur bone density decrease vs PBS+Sham (day 27) (female C57BL/6N mice; GST-RANKL+OVX (day 27), 0.6 mm): approximately 4%
femur bone density decrease vs PBS+Sham (day 27) (female C57BL/6N mice; GST-RANKL+OVX (day 27), 0.8 mm): approximately 13%
femur bone density decrease vs PBS+Sham (day 27) (female C57BL/6N mice; GST-RANKL+OVX (day 27), 1.0 mm): approximately 15%
femur bone density decrease vs PBS+Sham (day 27) (female C57BL/6N mice; GST-RANKL+Sham (day 27), 0.6 mm): approximately 7%
femur bone density decrease vs PBS+Sham (day 27) (female C57BL/6N mice; GST-RANKL+Sham (day 27), 0.8 mm): approximately 14%
femur bone density decrease vs PBS+Sham (day 27) (female C57BL/6N mice; GST-RANKL+Sham (day 27), 1.0 mm): approximately 16%
serum TRAP-5b concentration, fold as high as PBS+Sham (day 27) group (female C57BL/6N mice; every GST-RANKL administration group, 1 mg/kg i.p. twice, no significant difference): approximately 1.8 fold
serum ALP concentration ([1]; 1 mg/kg i.p. 3 times): no changes
serum TRAP-5b concentration increase ([1]; 1 mg/kg i.p. 3 times): approximately 65%
serum Ca concentration increase vs PBS group ([1]; 1 mg/kg i.p. 3 times, no significant difference): 7%
femur bone density decrease ([1]; 0.6 mm): approximately 6%
femur bone density decrease ([1]; 0.8 mm): approximately 10%
femur bone density decrease ([1]; 1.0 mm): approximately 15%
serum Ca concentration ([2]; GST-RANKL 3 times): did not obviously vary
serum TRAP-5b concentration, fold as high ([2]; RANKL administration): approximately 2 fold
femur bone density decrease vs PBS group ([2]; 0.6 mm): 27%
femur bone density decrease vs PBS group ([2]; 0.8 mm): 35%
femur bone density decrease vs PBS group ([2]; 1.0 mm): 35%
serum alkaline phosphatase concentration vs control ([3]; GST-RANKL 426 nmol): did not change
serum osteocalcin concentration vs control ([3]; GST-RANKL 426 nmol): did not change
serum CTx concentration, fold as high as control [3, 7]: approximately 1.4 fold
serum TRAP-5b concentration, fold as high as control [3, 7]: approximately 1.5 fold
femur bone density decrease vs control ([3]; GST-RANKL 426 nmol, at 0.6 mm, 0.8 mm and 1.0 mm): approximately 20%
serum ALP concentration ([4]; 1 mg/kg i.p. 3 times): no changes
serum Ca concentration vs control ([4]; 1 mg/kg i.p. 3 times): no changes
serum TRAP-5b concentration, fold as high as PBS group ([4]; 1 mg/kg i.p. 3 times): 1.8 fold
femur bone density decrease vs control ([4]; 1.0 mm): approximately 20%
femur bone density decrease vs control ([4]; 1.2 mm): approximately 20%
femur bone density decrease vs control ([4]; 1.4 mm): approximately 22%
femur cancellous bone density vs PBS group ([5]; experimental group 1: 0.5 mg/kg twice daily to the calvarium, at the measurement points): bone density decrease was observed
femur cancellous bone density vs PBS group ([5]; experimental group 2: 1 mg/kg once daily to the calvarium, at 0.8 mm and 1.0 mm): bone density decrease was observed
femur bone density decrease vs control ([6]; 2 mg/kg/day 7 days, 0.6 mm): approximately 21%
femur bone density decrease vs control ([6]; 2 mg/kg/day 7 days, 0.8 mm): approximately 32%
femur bone density decrease vs control ([6]; 2 mg/kg/day 7 days, 1.0 mm): approximately 47%
serum TRAP-5b concentration increase ([6]; 2 mg/kg/day 7 days, no significant difference): approximately 30%
serum ALP concentration increase ([6]; 2 mg/kg/day 7 days, p<0.02): approximately 30%
serum Ca concentration increase ([6]; 2 mg/kg/day i.p. 7 consecutive days, no significant difference): approximately 20%
